Source: PMC12408367 (2025)

Legend:
[1] = system: wild-type (WT) 5′UTR of KDM5C mRNA (RNA, mRNA element) UGGCGAAGGCUGCGGUACGACGGCCACACGCC; test: microscale thermophoresis (Monolith NT.115); conditions: DEPC water; RNA stock 40 nM; 1 mM putrescine stock, 16-step 1:2 dilution; 4PL sigmoidal fit
[2] = system: mutant (mut) 5′UTR of KDM5C mRNA (RNA, mRNA element) UGGCGUGGGCUGCGGUACGACGGCCACACGCC; test: microscale thermophoresis (Monolith NT.115); conditions: DEPC water; RNA stock 40 nM; 1 mM putrescine stock (highest), 16-step 1:2 dilution

Kd [1]: 52.3 µM
binding [2]: no
Structure (SMILES): NCCCCN
